Literature values, collected in patent US20140212515A1, “COMPOSITION AND METHODS FOR OPTIMIZING HEALTH OF CANCER PATIENTS BY THE ADMINISTRATION OF SODIUM SELENITE AND VITAMIN K3” (priority 2013, published 2014).

Test system: rat pancreatic cancer cells

## CC1=CC(=O)c2ccccc2C1=O [Menadione, 2-Methyl-1,4-Napthoquinone]
  proliferation of rat pancreatic cancer cells: inhibit the proliferation
